Data: publication PMC10341549, “Inhibitory Investigations of Acyl-CoA Derivatives against Human Lipoxygenase Isozymes” (International Journal of Molecular Sciences, 2023)
Like-named read-outs stand apart in the source and are kept apart here.

Columns and labels:
h5-LOX = target: T1, h5-LOX (Homo sapiens, UniProt P09917, C241A/C562A/D45S/DEL41-43/F15H/K654E/K655N/K656L/L77S/N44G/W14E/W76G); test: IC50 determination against h5-LOX; assay type: biochemical; conditions: 10 μM AA, 50 mM HEPES pH 7.5, 200 µM ATP, ammonium-sulfate precipitate enzyme, 22 °C
T1 sequence (P09917 with tags, fused parts or gaps W14E/F15H/DEL41-43/N44G/D45S/W76G/L77S/C241A/C562A/K654E/K655N/K656L): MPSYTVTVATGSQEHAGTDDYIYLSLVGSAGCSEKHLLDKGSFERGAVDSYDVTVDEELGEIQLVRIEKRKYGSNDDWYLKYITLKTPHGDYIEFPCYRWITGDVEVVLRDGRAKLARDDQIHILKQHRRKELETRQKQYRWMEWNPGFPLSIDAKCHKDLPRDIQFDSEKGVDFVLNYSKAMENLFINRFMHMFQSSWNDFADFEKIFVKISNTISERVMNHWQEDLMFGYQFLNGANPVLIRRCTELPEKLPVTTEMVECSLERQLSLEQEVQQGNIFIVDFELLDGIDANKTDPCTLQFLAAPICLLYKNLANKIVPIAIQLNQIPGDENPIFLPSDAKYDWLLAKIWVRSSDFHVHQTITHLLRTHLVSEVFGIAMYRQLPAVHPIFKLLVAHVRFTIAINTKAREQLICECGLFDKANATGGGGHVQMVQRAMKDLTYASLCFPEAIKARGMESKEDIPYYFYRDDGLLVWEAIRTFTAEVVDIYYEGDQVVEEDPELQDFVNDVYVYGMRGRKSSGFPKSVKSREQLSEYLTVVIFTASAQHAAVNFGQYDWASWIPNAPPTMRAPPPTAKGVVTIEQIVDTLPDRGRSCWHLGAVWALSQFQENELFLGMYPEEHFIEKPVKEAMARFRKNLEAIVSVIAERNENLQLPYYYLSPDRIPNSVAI

h12-LOX = target: T2, h12-LOX (Homo sapiens, UniProt P18054); parameters: method as in PMID 37506345; conditions: 10 μM AA, 25 mM HEPES pH 8.00, 0.01% Triton X-100, 22 °C, published previously, ref [30], cited from earlier work
T2 construct: His tag; made in house
T2 sequence (P18054 1-663): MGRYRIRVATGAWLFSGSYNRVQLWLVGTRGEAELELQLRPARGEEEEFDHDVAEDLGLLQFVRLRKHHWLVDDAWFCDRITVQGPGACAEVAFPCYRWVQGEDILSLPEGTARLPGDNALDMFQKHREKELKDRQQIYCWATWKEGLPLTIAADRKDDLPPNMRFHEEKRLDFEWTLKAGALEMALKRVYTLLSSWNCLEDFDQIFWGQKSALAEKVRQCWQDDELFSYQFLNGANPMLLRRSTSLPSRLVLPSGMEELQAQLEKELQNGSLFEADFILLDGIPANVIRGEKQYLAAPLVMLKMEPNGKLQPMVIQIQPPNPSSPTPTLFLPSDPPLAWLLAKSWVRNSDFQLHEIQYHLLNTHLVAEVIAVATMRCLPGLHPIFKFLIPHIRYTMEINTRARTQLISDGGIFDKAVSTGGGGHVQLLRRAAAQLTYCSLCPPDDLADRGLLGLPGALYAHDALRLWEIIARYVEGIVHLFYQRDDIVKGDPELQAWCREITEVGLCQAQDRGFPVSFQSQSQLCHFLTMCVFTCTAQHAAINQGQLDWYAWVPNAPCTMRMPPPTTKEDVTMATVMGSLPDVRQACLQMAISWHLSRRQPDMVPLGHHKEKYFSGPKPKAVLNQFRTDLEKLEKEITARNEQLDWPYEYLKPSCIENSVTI

Row | SMILES | IC50 (h5-LOX) [µM] | IC50 (h12-LOX) [µM] | IC50 (h12-LOX; listed as palmitoleoyl-CoA (16:1)) [µM] | IC50 (h12-LOX; listed as docosahexaenoyl-CoA (22:6)) [µM]
1 | CCCCC/C=C\C/C=C\C/C=C\C/C=C\CCCC(=O)SCCNC(=O)CCNC(=O)[C@H](O)C(C)(C)COP(=O)(O)OP(=O)(O)OC[C@H]1O[C@@H](n2cnc3c(N)ncnc32)[C@H](O)[C@@H]1OP(=O)(O)O [Arachidonoyl-CoA (20:4), arachidonoyl-coenzyme A (20:4)] | > 200 | 110 ± 20 | – | –
2 | CCCCC/C=C\C/C=C\C/C=C\CCCCC(=O)SCCNC(=O)CCNC(=O)[C@H](O)C(C)(C)COP(=O)(O)OP(=O)(O)OC[C@H]1O[C@@H](n2cnc3c(N)ncnc32)[C@H](O)[C@@H]1OP(=O)(O)O [ɣ-Linolenoyl-CoA (18:3), ɣ-linolenoyl-coenzyme A (18:3)] | > 500 | > 200 | – | –
3 | CC/C=C\C/C=C\C/C=C\C/C=C\C/C=C\C/C=C\CCC(=O)SCCNC(=O)CCNC(=O)C(O)C(C)(C)COP(=O)(O)OP(=O)(O)OC[C@H]1O[C@@H](n2cnc3c(N)ncnc32)[C@H](O)[C@@H]1OP(=O)(O)O (some centres unmarked) [Docosahexaenoyl CoA (22:6), docosahexaenoyl-coenzyme A (22:6)] | – | > 500 | – | > 200

More lines, main results first:

Row | IC50 (h5-LOX) [µM] | SMILES | IC50 (h12-LOX) [µM] | IC50 (h12-LOX; listed as palmitoleoyl-CoA (16:1)) [µM] | IC50 (h12-LOX; listed as docosahexaenoyl-CoA (22:6)) [µM]
4 | > 50 | CCCCCCCCCCCCCCCCCC(=O)SCCNC(=O)CCNC(=O)[C@H](O)C(C)(C)COP(=O)(O)OP(=O)(O)OC[C@H]1O[C@@H](n2cnc3c(N)ncnc32)[C@H](O)[C@@H]1OP(=O)(O)O [Stearoyl-CoA (18:0), stearoyl-coenzyme A (18:0)] | > 200 | – | –
5 | 2 ± 0.4 | CCCCCC/C=C\CCCCCCCC(=O)SCCNC(=O)CCNC(=O)[C@H](O)C(C)(C)COP(=O)(O)OP(=O)(O)OC[C@H]1O[C@@H](n2cnc3c(N)ncnc32)[C@H](O)[C@@H]1OP(=O)(O)O [Palmitoleoyl-CoA (16:1), palmitoleoyl-coenzyme A (16:1)] | > 500 | > 200 | –
6 | > 50 | CCCCCCCC/C=C\CCCCCCCC(=O)SCCNC(=O)CCNC(=O)[C@H](O)C(C)(C)COP(=O)(O)OP(=O)(O)OC[C@H]1O[C@@H](n2cnc3c(N)ncnc32)[C@H](O)[C@@H]1OP(=O)(O)O [Oleoyl-CoA (18:1), oleoyl-coenzyme A (18:1)] | 32 ± 4 | – | –
7 | > 100 | CCCCC/C=C\C/C=C\CCCCCCCC(=O)SCCNC(=O)CCNC(=O)[C@H](O)C(C)(C)COP(=O)(O)OP(=O)(O)OC[C@H]1O[C@@H](n2cnc3c(N)ncnc32)[C@H](O)[C@@H]1OP(=O)(O)O [Linoleoyl-CoA (18:2), linoleoyl-CoA] | > 200 | – | –
8 | 3.3 ± 0.3 | CCCCCCCCCCCCCCCC(=O)SCCNC(=O)CCNC(=O)[C@H](O)C(C)(C)COP(=O)(O)OP(=O)(O)OC[C@H]1O[C@@H](n2cnc3c(N)ncnc32)[C@H](O)[C@@H]1OP(=O)(O)O [Palmitoyl-CoA (16:0), palmitoyl-coenzyme A (16:0)] | > 200 | – | –
